This is an account of results in PMC3625562, “Rapid Screening of Drug-Protein Binding Using High-Performance Affinity Chromatography with Columns Containing Immobilized Human Serum Albumin” (Journal of Analytical Methods in Chemistry, 2013).

Series [1] has as its target T1, immobilized human serum albumin (HSA) (Homo sapiens, UniProt P02768). Kind of series: Drug-protein binding screening by HPLC on immobilized HSA column (HSA-HPLC). The following applies: 0.5 mL/min.
Method: (§1) Compounds were dissolved with water or water-ethanol (with different ratio) to a concentration of 100 µg/mL. The chromatographic peak was attained on a 5 μm Chiral-HSA, 50 × 3 mm column (Chrom Tech, France), which was preceded by an on-line filter. The ChemStation for LC 3D software was used for data acquiring and handling. As a generic rapid method, an isocratic mobile phase was selected. To simulate physiology environment, a mobile phase consisting of 0.9% NaCl (pH 7.0) at a flow rate of 0.5 mL/min was used. 10 µL aliquot of analyte solution was injected to HPLC to be analyzed.
Series [2] has as its system plasma proteins. The following applies: cited from earlier work.
Series [3] has as its target T1, immobilized human serum albumin (HSA). Particulars: pH 7.
Method: as §1
Series [4] has as its system plasma proteins. Kind of series: in vitro.
Method: (§2) PPB Experiment for Test Compounds by Ultrafiltration
(§3) The stock solution (1.0 or 2 mg/mL) of test compounds was prepared by dissolving appropriate amount of compounds in water-methanol (50 : 50, v/v) mixture. Working solution (1, 10 or 100 μg/mL) was attained by diluted stock solution with water. A different volume of the working solution was added to a 2 mL eppendorf vial and evaporated to dryness under a stream of nitrogen in the thermostatically controlled water bath maintained at 55°C for about 20 min. […] The mixture was incubated at 37°C for 30 min. […] The filtrate was analyzed for the drug content by HPLC-MS.
(§4) The concentration of the filtrate was analyzed by HPLC-MS. […] The PPB by ultrafiltration was performed in triplicates for all the compounds studied.
Series [5] deals with plasma proteins. Briefly: PPB experiment by ultrafiltration. The following applies: plasma, 10, 40, 200, 100, 2000, 100 ng/mL for A, B, C, D, E, F, 37°C 30 min, Microcon YM-30, triplicates; for fraction unbound at 30 min: plasma, PPB by ultrafiltration.
Method: as §2, §3, §4
The target of series [6] is human serum albumin (HSA) (Homo sapiens, UniProt P02768). Briefly: Drug-protein binding screening by HPLC on immobilized HSA column (HSA-HPLC). The following applies: human, pH 7.
human serum albumin (HSA), sequence (P02768 25-609): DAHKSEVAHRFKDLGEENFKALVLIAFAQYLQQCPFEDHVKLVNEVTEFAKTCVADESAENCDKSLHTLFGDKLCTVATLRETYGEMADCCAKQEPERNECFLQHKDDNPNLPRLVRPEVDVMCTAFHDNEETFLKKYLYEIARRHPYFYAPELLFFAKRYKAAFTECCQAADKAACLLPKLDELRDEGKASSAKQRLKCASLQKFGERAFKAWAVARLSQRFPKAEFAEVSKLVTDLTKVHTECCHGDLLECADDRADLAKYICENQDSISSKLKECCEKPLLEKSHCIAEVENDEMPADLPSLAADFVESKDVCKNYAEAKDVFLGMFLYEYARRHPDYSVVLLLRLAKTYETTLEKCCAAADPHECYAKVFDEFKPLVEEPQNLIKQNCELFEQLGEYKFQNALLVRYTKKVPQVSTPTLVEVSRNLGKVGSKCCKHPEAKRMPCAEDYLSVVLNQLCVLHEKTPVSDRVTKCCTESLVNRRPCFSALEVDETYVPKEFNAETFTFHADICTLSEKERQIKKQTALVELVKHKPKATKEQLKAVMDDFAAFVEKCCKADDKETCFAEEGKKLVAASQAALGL
Method: as §1
Setting [7] is: reference compounds, Chiral-HSA 50 × 3 mm column, mobile phase 0.9% NaCl (pH 7.0), 100 µg/mL, 10 µL injected.
The mark [8] stands for this setting: reported PPB values of reference compounds, ref not printed.
Setting [9] is: test compounds, Chiral-HSA column, 0.9% NaCl (pH 7.0).

Structures are written as SMILES. Counter-ions that a name gives are not always drawn. Like-named read-outs stand apart in the source and are kept apart here. Non-standard residues stand in square brackets, D forms with d. Residues, ends and D or L forms follow the SMILES beside them. Phe(4-Cl) = N[CH](Cc1ccc(Cl)cc1)C(=O)O; 2Nal = N[CH](Cc1ccc2ccccc2c1)C(=O)O; 3Pal = N[CH](Cc1cccnc1)C(=O)O Bounds are passed on as bounds.

T1 sequence (P02768 25-609): as above

In series [1] (setting [7]), `NS(=O)(=O)c1cc2c(cc1C(F)(F)F)NC(Cc1ccccc1)NS2(=O)=O` (stereo not shown) [Bendroflumethiazide] showed a Retention time of 3.27 min. For the same compound, in series [2] (setting [8]), the PPB from literature is 94.0%.
Turning to `O=C(O)/C=C/c1ccc(O)c(O)c1` [Caffeic acid], in series [1] (setting [7]), the Retention time came to 4.02 min. Also, in series [2] (setting [8]), the PPB from literature is given as 66.0%.
As for `Cn1c(=O)c2c(ncn2C)n(C)c1=O` [Caffeine], in series [1] (setting [7]), the Retention time is given as 1.18 min. Also, in series [2] (setting [8]), the PPB from literature is reported as 22.5%.
Compound `Oc1cc(O)c2c(c1)O[C@H](c1ccc(O)c(O)c1)[C@@H](O)C2` [Catechuic acid] returned a Retention time in series [1] (setting [7]) of 1.94 min. The PPB from literature in series [2] (setting [8]) is given as 20.7%.
`CN(C)CCC(c1ccc(Cl)cc1)c1ccccn1` (stereo not shown) [Chlorphenamine maleate] showed a Retention time in series [1] (setting [7]) of 5.93 min. Moreover, the PPB from literature in series [2] (setting [8]) was 37.5 (25–50) %.
With `Cc1nc(C)c(C)nc1C.Cl` [Chuanxiongzine hydrochloride], the PPB from literature in series [2] (setting [8]) is 44.3%. In addition, the Retention time in series [3] is 2.23 min.
For the compound `C[C@@](COC12CCN(CC1)CC2)(c1ccccc1)C1CCCC1` [Comp. A], the unbound share (fraction unbound) in series [4] was 0.218. The compound also displayed a Retention time in series [3] (human, 100 µg/mL) of 0.76 min.
In series [1] (setting [9]), `CC(C)[C@]12O[C@H]1[C@@H]1O[C@]13[C@]1(O[C@H]1C[C@H]1C4=C(CC[C@@]13C)C(=O)OC4)[C@@H]2O` [Comp. B] had a Retention time of 1.70 min. In addition, in series [5], the fraction unbound at 30 min is 0.784.
Regarding `CCN(CC)Cc1cc(-c2nc3c(Cl)nnc(OC)c3n2C)ccc1O` [Comp. C], the free fraction (fraction unbound) at 100 µg/mL in series [6] is more than 0.1. In series [1] (setting [9]), this compound registered a Retention time of 1.75 min. Moreover, in series [5], the PPB by ultrafiltration came to 51.0% and the fraction unbound at 30 min was 0.485.
As to `Cc1cc(SCc2cnc(-c3ccc(C(F)(F)F)cc3)nc2)ccc1OCC(=O)O` [Comp. E], the fraction unbound at 100 µg/mL in series [6] is less than 0.1. In series [5], the PPB by ultrafiltration was determined as 99.5% and the fraction unbound at 30 min was 0.005.
`CC(=O)NC(Cc1ccc2ccccc2c1)C(=O)NC(Cc1ccc(Cl)cc1)C(=O)NC(Cc1ccccc1)C(=O)NC(CO)C(=O)NC(CCCNC(=N)N)C(=O)NC(Cc1cccnc1)C(=O)NC(CC(C)C)C(=O)NC(CCCNC(=N)N)C(=O)N1CCCC1C(=O)NC(C)C(N)=O` (stereo not shown) [Comp. F] (Ac-[2Nal][Phe(4-Cl)]FSR[3Pal]LRPA-NH2; configuration not given here) came in with a Retention time in series [1] (setting [9]) of 0.81 min. In series [5], this compound registered a PPB by ultrafiltration of 97.2%.
On to `COc1cc(/C=C/C(=O)O)ccc1O` [Ferulic acid], for which the PPB from literature in series [2] (setting [8]) is on record as 20.6%. This compound displayed a Retention time in series [3] of 1.79 min.
Regarding `OC(Cn1cncn1)(Cn1cncn1)c1ccc(F)cc1F` [Fluconazole], the Retention time in series [1] (setting [7]) amounted to 1.07 min. Besides, the PPB from literature in series [2] (setting [8]) was 11.5 (11-12) %.
`CC(=O)OCC(=O)[C@@]1(O)CC[C@H]2[C@@H]3CCC4=CC(=O)CC[C@]4(C)[C@H]3[C@@H](O)C[C@@]21C` [Hydrocortisone acetate] registered a Retention time in series [1] (setting [7]) of 0.73 min. Also, in series [2] (setting [8]), the PPB from literature is 90.0%.
`CN1CCOC(c2ccccc2)c2ccccc2C1` (stereo not shown) [Nefopam hydrochloride]: the Retention time in series [1] (setting [7]) is 7.87 min. Besides, the PPB from literature was 73.5 (71–76) % in series [2] (setting [8]) and 71–76% in series [2] (reported PPB values of reference compounds, ref not printed, listed as nefopam).
The compound `CCOc1ccc(NC(C)=O)cc1` [Phenacetin] had a Retention time in series [1] (setting [7]) of 3.19 min. In series [2] (setting [8]), the PPB from literature is 30.0%.
As to `O=C1NC(=O)C(c2ccccc2)(c2ccccc2)N1` [Phenytoin sodium], the Retention time in series [1] (setting [7]) came out at 15.02 min. Also, the PPB from literature in series [2] (setting [8]) is 90.0%.
The compound `O=C(C1CCCCC1)N1CC(=O)N2CCc3ccccc3C2C1` (stereo not shown) [Praziquantel] displayed a Retention time in series [1] (setting [7]) of 12.97 min. Moreover, the PPB from literature in series [2] (setting [8]) is listed as 80.0%.
In the case of `CC(=O)[C@H]1CC[C@H]2[C@@H]3CCC4=CC(=O)CC[C@]4(C)[C@H]3CC[C@]12C` [Progesterone], in series [1] (setting [7]), the Retention time was found to be 50.02 min. In series [2], the PPB from literature is 97.0%.
`CC(C)NCC(O)COc1cccc2ccccc12` (stereo not shown) [Propranolol hydrochloride] displayed a Retention time in series [1] (setting [7]) of 5.21 min. In addition, the PPB from literature is listed as 92.5 (90–95) % in series [2] (setting [8]) and 90–95% in series [2] (reported PPB values of reference compounds, ref not printed, listed as propranolol hydrochloride).
Take `O=c1c(O)c(-c2ccc(O)c(O)c2)oc2cc(O)cc(O)c12` [Quercetin]: the Retention time in series [1] (setting [7]) is 0.72 min. For the same compound, in series [2] (setting [8]), the PPB from literature is 98.0%.
For the compound `CNC(=C[N+](=O)[O-])NCCSCc1ccc(CN(C)C)o1` [Ranitidine hydrochloride], the Retention time in series [1] (setting [7]) is 1.23 min. For the same compound, the PPB from literature in series [2] (setting [8]) is listed as 15.0 (12–18) %.
`COC(=O)[C@H]1[C@H]2C[C@@H]3c4[nH]c5cc(OC)ccc5c4CCN3C[C@H]2C[C@@H](OC(=O)c2cc(OC)c(OC)c(OC)c2)[C@@H]1OC` [Reserpine] came in with a Retention time in series [1] (setting [7]) of 0.71 min. The PPB from literature in series [2] (setting [8]) was 96.0%.
For the compound `C[C@@H]1O[C@@H](OC[C@H]2O[C@@H](Oc3c(-c4ccc(O)c(O)c4)oc4cc(O)cc(O)c4c3=O)[C@H](O)[C@@H](O)[C@@H]2O)[C@H](O)[C@H](O)[C@H]1O` [Rutoside], the Retention time in series [1] (setting [7]) was 13.43 min. The PPB from literature in series [2] (setting [8]) is 85.0 (80–90) %; in series [2] (reported PPB values of reference compounds, ref not printed, listed as rutoside) it was 80–90%.
For the compound `O=C(O)c1ccccc1O` [Salicylic acid], the PPB from literature in series [2] (setting [8]) was 85.0 (80–90) %.
As for `Nc1ccc(S(=O)(=O)Nc2ncccn2)cc1` [Sulfadiazine], the Retention time in series [1] (setting [7]) amounted to 1.88 min. For the same compound, the PPB from literature in series [2] (setting [8]) is 43.0 (38–48) %.
Compound `Cc1cc(C)nc(NS(=O)(=O)c2ccc(N)cc2)n1` [Sulfadimidine] had a Retention time in series [1] (setting [7]) of 6.22 min. Also, the PPB from literature in series [2] (setting [8]) is 80.0%.
As for `CCC(=O)O[C@H]1CC[C@H]2[C@@H]3CCC4=CC(=O)CC[C@]4(C)[C@H]3CC[C@]12C` [Testosterone propionate], in series [2] (setting [8]), the PPB from literature is given as 98.0%. Further, in series [3] (human), the Retention time is reported as 0.74 min.
As to `COc1cc(C(=O)O)ccc1O` [Vanillic acid], in series [2] (setting [8]), the PPB from literature is given as 56.3%. Further, the Retention time in series [3] (human, 100 µg/mL) stood at 3.11 min.
In series [1] (setting [7]), `CCN(CC)CCOc1ccc(C(=C(Cl)c2ccccc2)c2ccccc2)cc1` [clomifene citrate] had a Retention time of more than 240 min.
